Measurements published in US10544106B2, “Certain chemical entities, compositions, and methods” (NeuPharma, Inc., priority 2016, dated 2020).

What follows are molecules tested against BTK (Homo sapiens (Human), UniProt Q06187) (assay: Z'-LYTE kinase inhibition assay against BTK). Settings: compound at 100 nM; ATP concentration at Km.
Type: biochemical
How it was run: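 Compounds were titrated over 10 points (3-fold steps, 1% DMSO) against BTK (1.04-10.4 ng) using Tyr 01 substrate at 2 μM and ATP at Km, pH 7.5 HEPES buffer with MgCl2 and EGTA. After one hour each of reaction and development at room temperature, fluorescence gave percent inhibition and IC50.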

Sequence of BTK (Q06187 whole entry): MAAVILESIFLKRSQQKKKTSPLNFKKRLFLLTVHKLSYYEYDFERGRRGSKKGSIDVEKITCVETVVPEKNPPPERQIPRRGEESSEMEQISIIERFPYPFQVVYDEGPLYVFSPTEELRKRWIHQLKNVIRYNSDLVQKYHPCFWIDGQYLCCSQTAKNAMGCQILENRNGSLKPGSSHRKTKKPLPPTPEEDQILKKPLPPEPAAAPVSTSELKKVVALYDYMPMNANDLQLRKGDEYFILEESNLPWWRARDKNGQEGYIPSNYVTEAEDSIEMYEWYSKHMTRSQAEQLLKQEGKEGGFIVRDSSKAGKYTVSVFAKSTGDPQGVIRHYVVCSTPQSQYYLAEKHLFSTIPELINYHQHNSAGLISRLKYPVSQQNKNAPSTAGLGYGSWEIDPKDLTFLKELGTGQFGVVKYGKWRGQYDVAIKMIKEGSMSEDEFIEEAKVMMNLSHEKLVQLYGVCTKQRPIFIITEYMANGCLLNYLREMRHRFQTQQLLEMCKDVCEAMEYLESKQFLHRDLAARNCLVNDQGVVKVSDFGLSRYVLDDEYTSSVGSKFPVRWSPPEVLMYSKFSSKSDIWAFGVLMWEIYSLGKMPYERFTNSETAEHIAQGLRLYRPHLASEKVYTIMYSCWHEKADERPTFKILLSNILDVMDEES

Row | SMILES | inhibition at 0.1 µM
1 | C=CC(=O)N1CCC(c2nc(-c3ccc(Oc4ncccc4C(F)(F)F)cc3)n3c(N)nccc23)C1 (centres unmarked) [C218, 1-(3-(5-amino-3-(4-((3-(trifluoro-methyl)pyridin-2-yl)oxy)phenyl)imidazo[1,5-c]pyrimidin-1-yl)pyrrolidin-1-yl)prop-2-en-1-one] | > 50%
2 | CC#CC(=O)N1CCC(c2nc(-c3ccc(Oc4ncccc4C(F)(F)F)cc3)n3c(N)nccc23)C1 (centres unmarked) [C219, 1-(3-(5-amino-3-(4-((3-(trifluoromethyl)pyridin-2-yl)oxy)phenyl)imidazo[1,5-c]pyrimidin-1-yl)pyrrolidin-1-yl)but-2-yn-1-one] | < 50%
3 | C=CC(=O)Nc1cccc(-c2nc(-c3ccc(Oc4ncccc4C(F)(F)F)cc3)n3c(N)nccc23)c1 [C220, N-(3-(5-amino-3-(4-((3-(trifluoromethyl)pyridin-2-yl)oxy)phenyl)imidazo[1,5-c]pyrimidin-1-yl)phenyl)acrylamide] | > 50%
4 | C=CC(=O)N1CCC(c2nc(-c3ccc(Oc4cc(C(F)(F)F)ccn4)c(OC)c3)n3c(N)nccc23)C1 (centres unmarked) [C221, 1-(3-(5-amino-3-(3-methoxy-4-((4-(trifluoro-methyl)pyridin-2-yl)oxy)phenyl)imidazo[1,5-c]pyrimidin-1-yl)pyrrolidin-1-yl)prop-2-en-1-one] | > 50%
5 | CC#CC(=O)N1CCC(c2nc(-c3ccc(Oc4cc(C(F)(F)F)ccn4)c(OC)c3)n3c(N)nccc23)C1 (centres unmarked) [C222, 1-(3-(5-amino-3-(3-methoxy-4-((4-(trifluoro-methyl)pyridin-2-yl)oxy)phenyl)imidazo[1,5-c]pyrimidin-1-yl)pyrrolidin-1-yl)but-2-yn-1-one] | > 50%
6 | C=CC(=O)N1CCC(c2nc(-c3ccc(Oc4ncccc4C(F)(F)F)c(F)c3)n3c(N)nccc23)C1 (centres unmarked) [C223, 1-(3-(5-amino-3-(3-fluoro-4-((3-(trifluoro-methyl)pyridin-2-yl)oxy)phenyl)imidazo[1,5-c]pyrimidin-1-yl)pyrrolidin-1-yl)prop-2-en-1-one] | > 50%
7 | C=CC(=O)N1CCC(c2nc(-c3ccc(Oc4ncccc4F)cc3)n3c(N)nccc23)C1 (centres unmarked) [C226, 1-(3-(5-amino-3-(4-((3-fluoropyridin-2-yl)oxy)phenyl)imidazo[1,5-c]pyrimidin-1-yl)pyrrolidin-1-yl)prop-2-en-1-one] | > 50%
8 | C=CC(=O)N1CCC(c2nc(-c3ccc(Oc4ncccc4C#N)cc3)n3c(N)nccc23)C1 (centres unmarked) [C227, 2-(4-(1-(1-acryloylpyrrolidin-3-yl)-5-amino-imidazo[1,5-c]pyrimidin-3-yl)phenoxy)nicotinonitrile] | > 50%

Same assay, conditions: series of concentrations; GraphPad Prism 5

Row | SMILES | IC50
9 | C=CC(=O)N1CCC(c2nc(-c3ccc(Oc4ncccc4C(F)(F)F)cc3)n3c(N)nccc23)C1 (centres unmarked) [C218, 1-(3-(5-amino-3-(4-((3-(trifluoro-methyl)pyridin-2-yl)oxy)phenyl)imidazo[1,5-c]pyrimidin-1-yl)pyrrolidin-1-yl)prop-2-en-1-one] | < 100 nM
10 | CC#CC(=O)N1CCC(c2nc(-c3ccc(Oc4ncccc4F)cc3)n3c(N)nccc23)C1 (centres unmarked) [C228, 1-(3-(5-amino-3-(4-((3-fluoropyridin-2-yl)oxy)phenyl)imidazo[1,5-c]pyrimidin-1-yl)pyrrolidin-1-yl)but-2-yn-1-one] | < 100 nM
11 | CC#CC(=O)N1CCC(c2nc(-c3ccc(Oc4ncccc4C#N)cc3)n3c(N)nccc23)C1 (centres unmarked) [C229, 2-(4-(5-amino-1-(1-(but-2-ynoyl)pyrrolidin-3-yl)imidazo[1,5-c]pyrimidin-3-yl)phenoxy)nicotinonitrile] | < 100 nM
12 | CC#CC(=O)N1CCC(c2nc(-c3ccc(C(=O)Nc4ccccn4)c(F)c3)n3c(N)nccc23)C1 (centres unmarked) [C231, 4-(5-amino-1-(1-(but-2-ynoyl)pyrrolidin-3-yl)imidazo[1,5-c]pyrimidin-3-yl)-2-fluoro-N-(pyridin-2-yl)benzamide] | < 100 nM
13 | C=CC(=O)N1CCCC(c2nc(-c3ccc(Oc4ncccc4F)c(OC)c3)n3c(N)nccc23)C1 (centres unmarked) [C232, 1-(3-(5-amino-3-(4-((3-fluoropyridin-2-yl)oxy)-3-methoxyphenyl)imidazo[1,5-c]pyrimidin-1-yl)piperidin-1-yl)prop-2-en-1-one] | < 100 nM
14 | C=CC(=O)N1CCC(c2nc(-c3ccc(Oc4ncccc4F)c(OC)c3)n3c(N)nccc23)C1 (centres unmarked) [C233, 1-(3-(5-amino-3-(4-((3-fluoropyridin-2-yl)oxy)-3-methoxyphenyl)imidazo[1,5-c]pyrimidin-1-yl)pyrrolidin-1-yl)prop-2-en-1-one] | < 100 nM
